The record followed here is PMC10835127, “Viruses traverse the human proteome through peptide interfaces that can be biomimetically leveraged for drug discovery” (Proceedings of the National Academy of Sciences of the …, 2024).

The test system of test [1] is HIV1 strain NL4-3. It is filed as cell-based. Conditions: normalized mean of HIV1 replication readout.
The subject of test [2] is HCV replicon. Type of test: cell-based. Conditions: normalized mean of HCV replicon readout. (In general: In antiviral work, replicon cells carry a viral genome segment that copies itself.)
Test [3] concerns EBV. To be noted: normalized mean of EBV replication readout.
Test [4] deals with F. novicida (strain U112). It is filed as cell-based.
The subject of test [5] is influenza A H1N1 virus. Conditions: 48 hr post-treatment, A549.

Like-named read-outs stand apart in the source and are kept apart here.

“CPEP140: peptide of the viral peptide library; sequence page not shown (RKKRRQRRRA)”: in test [1], the “HIV1 Norm MEAN” value was 1.188. Also, in test [2], the “HCV Norm MEAN” value amounted to 0.5668. Moreover, the “EBV Norm MEAN” value in test [3] came out at 1.618. Besides, the “Francisella novicida Norm AUC” value in test [4] was determined as 0.8228. Moreover, the “Neuraminidase activity normalized to vehicle” value in test [5] (200 µM peptide) is 0,616; in test [5] (0,823 µM peptide), 0,9961; in test [5] (22,2 µM peptide), 1,0982; in test [5] (2,4691 µM peptide), 1,0685; in test [5] (7,4074 µM peptide), 0,9007; in test [5] (66,6667 µM peptide), 1,0124.

With “CPEP142: peptide of the viral peptide library; sequence page not shown (LGIVCPICSQKP)”, the “HIV1 Norm MEAN” value in test [1] is given as 0.603. For the same substance, in test [2], the “HCV Norm MEAN” value is 0.308. Moreover, the “EBV Norm MEAN” value in test [3] stood at 1.863. Also, the “Francisella novicida Norm AUC” value in test [4] turned out to be 1.819. The “Neuraminidase activity normalized to vehicle” value in test [5] (200 µM peptide) was 0,8923; in test [5] (0,823 µM peptide), 0,9385; in test [5] (22,2 µM peptide) it was 0,9689; in test [5] (2,4691 µM peptide), 0,9538; in test [5] (7,4074 µM peptide), 0,9445; in test [5] (66,6667 µM peptide) it was 1,085.

Take “CPEP153: peptide of the viral peptide library; sequence page not shown (GRKKRRQRRR)”: the “HIV1 Norm MEAN” value in test [1] was determined as 0.7984. For the same substance, the “HCV Norm MEAN” value in test [2] was found to be 0.3202. Moreover, the “EBV Norm MEAN” value in test [3] is listed as 2.382. Besides, the “Francisella novicida Norm AUC” value in test [4] is 0.6851. Moreover, the “Neuraminidase activity normalized to vehicle” value is 0,9878 in test [5] (200 µM peptide); 1,0171 in test [5] (0,823 µM peptide); 1,0832 in test [5] (22,2 µM peptide); 1,0648 in test [5] (2,4691 µM peptide); 1,0014 in test [5] (7,4074 µM peptide); 1,1029 in test [5] (66,6667 µM peptide).

With DDLYEEV [CPEP111], the “HIV1 Norm MEAN” value in test [1] turned out to be 0.957. Moreover, the “HCV Norm MEAN” value in test [2] stood at 0.2545. Further, in test [3], the “EBV Norm MEAN” value is 0.5736. Besides, the “Francisella novicida Norm AUC” value in test [4] worked out at 0.6875. In addition, the “Neuraminidase activity normalized to vehicle” value in test [5] (200 µM peptide) is recorded as 0,7987; in test [5] (0,823 µM peptide), 0,9384; in test [5] (22,2 µM peptide) it was 0,8898; in test [5] (2,4691 µM peptide), 0,8026; in test [5] (7,4074 µM peptide), 0,8887; in test [5] (66,6667 µM peptide), 0,8909.

Turning to DILDLWIYHTQGYFPDWQ [CPEP114], the “HIV1 Norm MEAN” value in test [1] (peptide screen) is given as 4.359. Further, in test [2] (peptide screen), the “HCV Norm MEAN” value was 0.2469. Besides, the “EBV Norm MEAN” value in test [3] (peptide screen) is 1.296. Also, the “Francisella novicida Norm AUC” value in test [4] is 1.151. The “Neuraminidase activity normalized to vehicle” value in test [5] (200 µM peptide) was 0,4016; in test [5] (0,823 µM peptide) it was 1,1783; in test [5] (22,2 µM peptide) it was 1,017; in test [5] (2,4691 µM peptide), 1,0928; in test [5] (7,4074 µM peptide), 1,195; in test [5] (66,6667 µM peptide) it was 0,5539.

Regarding DKELYPLTSLRSLFG [CPEP65], the “HIV1 Norm MEAN” value in test [1] (peptide screen) stood at 0.2888. For the same substance, the “HCV Norm MEAN” value in test [2] (peptide screen) is 0.8278. For the same substance, the “EBV Norm MEAN” value in test [3] (peptide screen) is 0.6954. Further, the “Francisella novicida Norm AUC” value in test [4] came to 0.6089. Also, the “Neuraminidase activity normalized to vehicle” value in test [5] (200 µM peptide) is on record as 0,356; in test [5] (0,823 µM peptide), 0,8623; in test [5] (22,2 µM peptide) it was 1,0442; in test [5] (2,4691 µM peptide) it was 0,9706; in test [5] (7,4074 µM peptide) it was 0,9802; in test [5] (66,6667 µM peptide), 1,0044.

DLYCYEQLNDSSEEE [CPEP55]: in test [1] (peptide screen), the “HIV1 Norm MEAN” value amounted to 0.5362. Further, the “HCV Norm MEAN” value in test [2] (peptide screen) was 0.7703. In test [3] (peptide screen), the “EBV Norm MEAN” value was 0.3423. In addition, the “Francisella novicida Norm AUC” value in test [4] amounted to 1.147. Further, the “Neuraminidase activity normalized to vehicle” value in test [5] (200 µM peptide) is given as 1,025; in test [5] (0,823 µM peptide) it was 0,8699; in test [5] (22,2 µM peptide), 0,9333; in test [5] (2,4691 µM peptide), 0,9062; in test [5] (7,4074 µM peptide) it was 0,9392; in test [5] (66,6667 µM peptide) it was 1,0033.

Regarding DLYCYEQLNDSSEEEDE [CPEP125], the “HIV1 Norm MEAN” value in test [1] (peptide screen) is 1.6. In addition, in test [2] (peptide screen), the “HCV Norm MEAN” value was 0.9031. Further, the “EBV Norm MEAN” value in test [3] (peptide screen) turned out to be 1.019. Also, in test [4], the “Francisella novicida Norm AUC” value stood at 1.158. For the same substance, the “Neuraminidase activity normalized to vehicle” value was 0,7813 in test [5] (200 µM peptide); 1,0772 in test [5] (0,823 µM peptide); 1,1403 in test [5] (22,2 µM peptide); 0,9577 in test [5] (2,4691 µM peptide); 1,1015 in test [5] (7,4074 µM peptide); 0,8979 in test [5] (66,6667 µM peptide).

Consider EALKKALRRHRFLWQRR [CPEP73], for which the “HIV1 Norm MEAN” value in test [1] (peptide screen) is recorded as 0.2962. Moreover, the “HCV Norm MEAN” value in test [2] (peptide screen) is recorded as 0.02817. Also, the “EBV Norm MEAN” value in test [3] (peptide screen) stood at 2.469. Moreover, the “Francisella novicida Norm AUC” value in test [4] stood at 1.711. For the same substance, the “Neuraminidase activity normalized to vehicle” value is given as 0,1338 in test [5] (200 µM peptide); 1,11 in test [5] (0,823 µM peptide); 1,1241 in test [5] (22,2 µM peptide); 0,9956 in test [5] (2,4691 µM peptide); 1,1329 in test [5] (7,4074 µM peptide); 0,4622 in test [5] (66,6667 µM peptide).

On to EDLLNEPGQPLDLSC [CPEP104], for which the “HIV1 Norm MEAN” value in test [1] (peptide screen) came to 0.2933. In test [2] (peptide screen), the “HCV Norm MEAN” value came to 1.128. Besides, the “EBV Norm MEAN” value in test [3] (peptide screen) turned out to be 0.504. Moreover, the “Francisella novicida Norm AUC” value in test [4] stood at 1.073. Moreover, the “Neuraminidase activity normalized to vehicle” value in test [5] (200 µM peptide) is 0,8372; in test [5] (0,823 µM peptide) it was 0,8247; in test [5] (22,2 µM peptide) it was 0,8954; in test [5] (2,4691 µM peptide), 0,9133; in test [5] (7,4074 µM peptide) it was 0,8771; in test [5] (66,6667 µM peptide), 0,8952.

Take EDPNEE [CPEP68]: in test [1], the “HIV1 Norm MEAN” value was found to be 1.205. Further, the “HCV Norm MEAN” value in test [2] is on record as 0.2553. Further, the “EBV Norm MEAN” value in test [3] turned out to be 0.4757. In addition, the “Francisella novicida Norm AUC” value in test [4] was 0.6174. Further, the “Neuraminidase activity normalized to vehicle” value is 0,7574 in test [5] (200 µM peptide); 0,7462 in test [5] (0,823 µM peptide); 0,8576 in test [5] (22,2 µM peptide); 0,7296 in test [5] (2,4691 µM peptide); 0,7652 in test [5] (7,4074 µM peptide); 0,95 in test [5] (66,6667 µM peptide).

Regarding ELLSGLQEWL [CPEP85], the “HIV1 Norm MEAN” value in test [1] turned out to be 0.5625. Moreover, the “HCV Norm MEAN” value in test [2] is 0.7957. Moreover, the “EBV Norm MEAN” value in test [3] is reported as 1.35. In addition, the “Francisella novicida Norm AUC” value in test [4] was found to be 1.212. The “Neuraminidase activity normalized to vehicle” value in test [5] (200 µM peptide) is listed as 0,9118; in test [5] (0,823 µM peptide), 0,9858; in test [5] (22,2 µM peptide), 0,8356; in test [5] (2,4691 µM peptide) it was 0,9371; in test [5] (7,4074 µM peptide) it was 0,8683; in test [5] (66,6667 µM peptide) it was 0,8029.

Regarding EPLDLPPIIQ [CPEP45], the “HIV1 Norm MEAN” value in test [1] is 0.3392. The “HCV Norm MEAN” value in test [2] stood at 1.078. Also, the “EBV Norm MEAN” value in test [3] was 0.6832. Moreover, in test [4], the “Francisella novicida Norm AUC” value amounted to 1.0611. Moreover, the “Neuraminidase activity normalized to vehicle” value in test [5] (200 µM peptide) was 0,7336; in test [5] (0,823 µM peptide) it was 0,9966; in test [5] (22,2 µM peptide) it was 0,8381; in test [5] (2,4691 µM peptide) it was 0,9443; in test [5] (7,4074 µM peptide), 0,9188; in test [5] (66,6667 µM peptide), 0,7574.

As for EVLADNLPPP [CPEP90], the “HIV1 Norm MEAN” value in test [1] came to 0.8397. Also, in test [2], the “HCV Norm MEAN” value is listed as 1.163. Further, the “EBV Norm MEAN” value in test [3] was 1.561. Moreover, the “Francisella novicida Norm AUC” value in test [4] is recorded as 1.209. For the same substance, the “Neuraminidase activity normalized to vehicle” value in test [5] (200 µM peptide) is listed as 0,7518; in test [5] (0,823 µM peptide), 0,9901; in test [5] (22,2 µM peptide) it was 0,7822; in test [5] (2,4691 µM peptide), 0,9469; in test [5] (7,4074 µM peptide), 0,8328; in test [5] (66,6667 µM peptide) it was 0,7316.

Turning to FPESLIL [CPEP76], the “HIV1 Norm MEAN” value in test [1] is given as 0.9579. The “HCV Norm MEAN” value in test [2] is reported as 0.1881. For the same substance, the “EBV Norm MEAN” value in test [3] turned out to be 1.102. Moreover, the “Francisella novicida Norm AUC” value in test [4] is reported as 0.9207. In addition, the “Neuraminidase activity normalized to vehicle” value in test [5] (200 µM peptide) was 0,7678; in test [5] (0,823 µM peptide), 0,7594; in test [5] (22,2 µM peptide) it was 0,787; in test [5] (2,4691 µM peptide), 0,7722; in test [5] (7,4074 µM peptide), 0,7943; in test [5] (66,6667 µM peptide) it was 0,7797.

Consider FVKSNWGLF [CPEP101], for which, in test [1], the “HIV1 Norm MEAN” value was determined as 0.9706. The “HCV Norm MEAN” value in test [2] was determined as 0.5497. In addition, the “EBV Norm MEAN” value in test [3] came out at 1.466. Besides, the “Francisella novicida Norm AUC” value in test [4] was 1.6479. For the same substance, the “Neuraminidase activity normalized to vehicle” value in test [5] (200 µM peptide) is 0,7463; in test [5] (0,823 µM peptide) it was 1,0136; in test [5] (22,2 µM peptide) it was 0,9003; in test [5] (2,4691 µM peptide), 0,9061; in test [5] (7,4074 µM peptide), 0,9057; in test [5] (66,6667 µM peptide) it was 0,8948.
